These results are taken from patent US10378060B2, “ZNF365/ZFP365 biomarker predictive of anti-cancer response” (Dana-Farber Cancer Institute, Inc., priority 2011, dated 2019).

Assay [1] concerns U2OS cells. Put plainly: 53BP1-positive DNA damage foci (DSB) staining. The class given is cell-based. The conditions noted are these: ZNF365-deficient U2OS cells (shZNF-2 or shZNF-5), additional treatment with 1 μM ABT888. An excerpt:
FIGS. 10A-10C show increased DNA double strand breaks (DSB) in ZNF365-deficient cells.
U2OS cells infected with either a control scrambled shRNA (Scr) to establish the basal DSB levels or with either of two independent shRNA sequences targeting ZNF365 (shZNF-2 or shZNF-5) were scored for 53BP1-positive damage foci as an indicator of DSB (FIG. 10A; red highlighted dots indicates foci and dotted circles indicate nuclei). Quantification of the 53BP1-positive foci indicated increased numbers of DSB in ZNF365-deficient cells (FIG. 10B).

Assay [2] deals with MCF7 breast cancer cell line. Description: MTT cell proliferation assay. The format is cell-based. The conditions noted are these: MCF7 control (TR) vs shZNF cells, different doses of ABT888 for 48 hours with or without radiation (2 Gy). Here is the method:
Control cells of the MCF7 breast cancer cell line (TR), as well as MCF7 cells transfected with shRNAs targeting ZNF365 (shZNF) were treated with different doses of the PARP inhibitor, ABT888, for 48 hours with or without radiation (2 Gy). A standard MTT cell proliferation assay was performed to determine cell viability.

As to `C[C@]1(c2nc3c(C(N)=O)cccc3[nH]2)CCCN1` [ABT888], the “53BP1-positive DNA damage foci as an indicator of DSB” value in assay [1] is “became more prominent”. Moreover, the cell viability result in assay [2] is “ZNF365 deficiency sensitizes cells”.
